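Five concentrations, 48 hours, 96-well plates. The concentration for 50% growth inhibition is given as GI50. TGI: total growth inhibition.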
Tests used:
Assay in all cases: growth of human tumour cells (NCI), 48 h
MDA-MB-231 breast = test system: MDA-MB-231 breast
TK-10 renal = test system: TK-10 renal
ACHN renal = test system: ACHN renal
UACC-257 melanoma = test system: UACC-257 melanoma
SNB-19 CNS = test system: SNB-19 CNS
SN12C renal = test system: SN12C renal
HL-60(TB) leukemia = test system: HL-60(TB) leukemia
SK-MEL-5 melanoma = test system: SK-MEL-5 melanoma
K-562 leukemia = test system: K-562 leukemia
NCI-H522 lung = test system: NCI-H522 lung

Compound	TGI (MDA-MB-231 breast) [µM]	TGI (TK-10 renal) [µM]	TGI (ACHN renal) [µM]	TGI (UACC-257 melanoma) [µM]	TGI (SNB-19 CNS) [µM]	TGI (SN12C renal) [µM]	TGI (HL-60(TB) leukemia) [µM]	TGI (SK-MEL-5 melanoma) [µM]	TGI (K-562 leukemia) [µM]	TGI (NCI-H522 lung) [µM]	GI50 (MDA-MB-231 breast) [µM]	GI50 (TK-10 renal) [µM]	GI50 (ACHN renal) [µM]	GI50 (UACC-257 melanoma) [µM]	GI50 (SNB-19 CNS) [µM]	GI50 (SN12C renal) [µM]	GI50 (HL-60(TB) leukemia) [µM]	GI50 (SK-MEL-5 melanoma) [µM]	GI50 (K-562 leukemia) [µM]	GI50 (NCI-H522 lung) [µM]
CC(C)CC1c2[nH]c3ccccc3c2C[C@H]2C(=O)NC(CCC(=O)OC(C)(C)C)C(=O)N12 (some centres undefined)	79.1	74	> 100	66	> 100	70.8	55.2	61.7	> 100	88.1	–	–	–	–	–	–	–	–	–	–
O=S(O)c1cc(Cl)cc(Cl)c1O	–	> 100	> 100	> 100	> 100	> 100	> 100	–	> 100	> 100	–	–	–	–	–	–	–	–	–	–
COc1cc(-c2coc3c(OC)c(OC4OC(CO)C(O)C(O)C4O)c(OC)cc3c2=O)cc(OC)c1C (centres undefined)	> 54.5	> 70.3	30	> 31.6	28.6	51.8	> 100	27.8	> 70.4	11.1	–	–	–	–	–	–	–	–	–	–
C[C@]12CC(c3ccccc3O1)C(C(=O)NC13CC4CC(CC(C4)C1)C3)C(=O)N2 (some centres undefined)	> 100	> 100	> 100	> 100	> 100	–	–	33.3	30.4	> 100	–	–	–	–	–	–	–	–	–	–
CC(=O)OCC1OC(O[C@@H]2c3c(O)c4c(c(O)c3C3=C(NN(c5ccc([N+](=O)[O-])cc5[N+](=O)[O-])[Se]3=O)[C@@]2(C)O)C(=O)c2ccccc2C4=O)C(OC(C)=O)C(OC(C)=O)C1OC(C)=O (some centres undefined)	1.48	2.05	0.607	1.49	–	0.552	–	0.42	0.431	0.29	–	–	–	–	–	–	–	–	–	–
N#C/C=C1\C=CC(O)C(O)C1OC1OC(CO)C(O)C(O)C1O (centres undefined)	> 100	> 100	> 100	> 100	> 100	> 100	> 100	> 100	> 100	> 100	–	–	–	–	–	–	–	–	–	–
O=C(O)C1CC(c2ccccc2)=NN1c1ccccc1 (centres undefined)	> 100	> 100	> 100	> 100	> 100	> 100	> 100	> 100	> 100	> 100	–	–	–	–	–	–	–	–	–	–
CC1(C)COC(/C=C/C2=NC(C)(C)CO2)=N1	44.2	27.2	57.3	> 100	> 100	9.89	49.4	27.3	63.4	13.4	–	–	–	–	–	–	–	–	–	–
c1ccc2sc(C3(N4CCCCC4)CCCC3)cc2c1	–	28.5	21	29.7	29.2	33.1	19.1	22.9	23.9	24.8	–	–	–	–	–	–	–	–	–	–
C=C1C(=O)OC2C1C(OC(=O)/C(C)=C/C)CC1(C)C(=O)CCC(=C)C21 (centres undefined)	38.4	25.7	8.23	28.5	–	4.09	–	22.8	–	7.63	–	–	–	–	–	–	–	–	–	–
COC(=O)C1=CC[C@@H]2C(C(=O)O)=CO[C@@H](OC3OC(CO)C(O)C(O)C3O)[C@H]12 (some centres undefined)	–	–	–	> 300	> 300	> 300	> 300	> 288	> 300	> 300	–	–	–	–	–	–	–	–	–	–
Fc1ccc(-c2ccc(-c3nnc(-c4cc(F)c(Cl)cc4Cl)o3)o2)cc1Cl	> 100	> 100	> 100	> 100	> 100	> 100	> 100	31.9	> 100	> 100	29.7	27.2	35.3	46.1	25.4	33.3	> 100	17	48.5	38.7
O=S(=O)(c1ccc(I)cc1)N(c1ccccc1)S(=O)(=O)C(F)(F)C(F)(F)C(F)(F)C(F)(F)F	> 100	73.5	> 100	> 100	> 100	> 100	> 100	–	> 100	84.9	–	–	–	–	–	–	–	–	–	–
[C-]#[O+].[C-]#[O+].[Ir].[O-]c1cccc2cccnc12	–	> 100	–	> 100	> 100	> 100	–	> 100	–	–	–	> 100	–	> 100	> 100	> 100	–	–	–	–
CCOC(=O)n1cncc1CC(NC(=O)Cc1c(C(=O)C=C(C)C)[nH]c2ccccc12)C(=O)OC (centres undefined)	36.1	34.2	36	28.2	30.5	39.5	44	37.5	> 100	15.2	–	–	–	–	–	–	–	–	–	–
COc1cccc(-c2nc3c(C(=O)NCCN(C)C)cccc3[nH]2)c1	–	–	–	31.3	> 100	> 70.6	41.2	31.5	> 70.9	34	–	–	–	–	–	–	–	–	–	–
CC(C)C(N=Cc1ccccc1O)C(=O)O (centres undefined)	> 100	> 100	> 100	> 100	> 100	> 100	> 100	> 100	> 100	> 100	–	–	–	–	–	–	–	–	–	–
OC1CC(O)c2c(Cl)sc(Cl)c21 (centres undefined)	> 100	82.3	> 100	54.9	–	> 100	> 100	> 100	> 100	56.8	–	–	–	–	–	–	–	–	–	–
C[N+]1(C)CCC(C#N)(c2ccccc2)CC1	–	> 100	> 100	> 100	> 100	–	> 100	> 100	> 100	–	–	–	–	–	–	–	–	–	–	–
O=C1/C(=C\c2ccc(-c3ccc(Cl)cc3Cl)o2)SC2N=C(COc3ccc(Cl)cc3)NN12 (centres undefined)	> 100	18.3	> 100	74.4	> 100	> 100	> 100	> 100	> 100	> 100	–	–	–	–	–	–	–	–	–	–
COc1ccc(SC(C)(SC)c2ccccn2)c(OC)n1 (centres undefined)	> 100	> 100	> 100	> 100	> 100	> 100	28.3	> 100	> 100	> 100	–	–	–	–	–	–	–	–	–	–
CC(O)C(O)C(N)CC=O (centres undefined)	–	–	–	> 500	> 500	> 500	> 500	> 500	> 500	> 500	–	–	–	–	–	–	–	–	–	–
CN(C)Cc1ccc(C(=O)Nc2ccc3ncnc(Nc4ccc(Oc5cccc(F)c5)c(Cl)c4)c3c2)cc1	3.12	–	2.36	–	3.09	2.81	3.7	2.97	2.88	–	1.65	–	1.15	–	1.66	1.44	1.91	1.59	1.17	–
